The values that follow come from PubChem BioAssay AID2060363 (Molecular Pharmacology Branch, DTP, NCI, 2025).

The structures appear in SMILES notation. Values joined by “and” are separate entries in the source; they are usually repeats but may differ in a detail not shown here. Equal entries are not always repeated.

The subject of the assay is 156681-154-R-J1-PDC tumor spheroids, viability % test/control. The assay is described as follows: Anticancer human tumor 156681-154-R-J1-PDC patient-derived melanoma cell line growth inhibition [TAK]. The note with it: spheroids with HUVEC and MSC; for viability, T/C: stronger effect = lower value. The source says:
Combinatorial screen of targeted agents with TAK-243 and ipatasertib in multi-cell type tumor spheroids
A high-throughput screen of multi-cell type tumor spheroids was designed to identify active combinations of targeted small molecules and TAK-243 or ipatasertib. Complex spheroids include a stromal component modeled by human endothelial cells (HUVEC) and fibroblasts modeled by human mesenchymal stem cells (MSCs). The concentration ranges selected for each drug and investigational agent were based upon clinically achievable concentrations if the clinical Cmax of the agent was known.
Compounds. The drugs and investigational agents: TAK-243 (785004), ipatasertib (767898), everolimus (733504), selumetinib (741078), bortezomib (756655), trametinib (758246), ixazomib (758254), vemurafenib (761431), dabrafenib (764134), sapanisertib (764658), alpelisib (765974), and copanlisib (816437), were obtained from the National Cancer Institute (NCI) Developmental Therapeutics Program Chemical Repository. The FDA-approved anticancer drug set is available from the NCI Developmental Therapeutics Program. […] The stock solutions were prepared in dimethyl sulfoxide (DMSO, Sigma-Aldrich, St. Louis, MO, cat. D2650) at 800-fold the tested concentration and stored at -70 degrees C prior to their use. All drugs and investigational agents were tested over a range starting from a high concentration at or near the clinical Cmax and decreasing in half-log increments. If the clinical Cmax for an agent had not been determined, the highest concentration tested was 10 microM.
NCI60 Cell Culture. NCI60 cell lines were obtained from the NCI Developmental Therapeutics Program Tumor Repository. For each lot of cells, the Repository performed Applied Biosystems AmpFLSTR Identifiler testing with PCR amplification to confirm consistency with the published Identifier STR profile for each cell line. Cells were kept in continuous culture for no more than 20 passages. The optimal seeding densities for each of the cell lines at each time point assessed were determined prior to performing the concentration response studies. Briefly, the NCI60 human tumor lines were grown as monolayers in RPMI 1640 medium supplemented with 10% FBS and 2 mmol/L L-glutamine.
An additional 2 lines were from the NCI60 cell line panel including melanomas, MALME-3M and SK-MEL-2. Pooled donor human umbilical vein endothelial cells (HUVEC, Lonza, cat. CC-2519) and human mesenchymal stem cells (hMSC, Lonza, cat. PT-2501) were purchased from Lonza (Walkersville, MD).
PDMR cell lines were grown in complete medium (DC medium): Dulbecco's modified Eagle's medium (DMEM)/F12 supplemented with 5% fetal bovine serum (FBS), 2 mM L-glutamine, 100 U/mL penicillin and 100 µg/ml streptomycin, 0.4 µg/ml hydrocortisone, 10 ng/ml epidermal growth factor (EGF) recombinant human protein, 24 µg/mL adenine, and 0.1 mg/mL primocin. During culture from frozen stock vials, PDMR cells were cultured in the same medium containing 10 µM Y-27632 (see Table 3). The PDCs were cultured in complete DMEM/F12 media without 10 microM Y-27632 dihydrochloride for at least two passages prior to the screen. The pooled donor HUVEC and hMSC were cultured in endothelial cell growth medium 2 (PromoCell, Heidelberg, Germany, cat. C-22011) and mesenchymal stem cell growth medium 2 (PromoCell, cat. C-28009), respectively. For all experiments, HUVEC and hMSC were used at passages </=5.
For the pre-screen, cell seeding densities were determined from a titration spanning the range from 5,000 to 313 cells per well. The mct-spheroids including 60% malignant cells, 25% HUVEC and 15% MSC dispensed as a mixture into U-bottom Ultra-Low Attachment 384-well plates (Corning, NY)
High-throughput Drug Combination Screening.
Prior to their inoculation into 384-well plates, malignant cells, HUVEC, and hMSC were removed from T flasks using TrypLE express (Thermo Fisher Scientific, cat. 12605036) and harvested by centrifugation for 5 min at 233 x g. […]
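Also: spheroids exposed to compounds for 7 days before the endpoint.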

As for `CCCS(=O)(=O)Nc1ccc(F)c(C(=O)c2c[nH]c3ncc(-c4ccc(Cl)cc4)cc23)c1F` + CC(C)NCC(C(=O)N1CCN(c2ncnc3c2C(C)CC3O)CC1)c1ccc(Cl)cc1, the IC50 (curve of first compound, second compound 0.3 µM) is 8190 nM; the half-inhibitory concentration (IC50) (curve of first compound, second compound 0.949 µM) is 7510 nM; the IC50 (curve of first compound, second compound 3 µM) came out at 3820 nM; the IC50 (curve of first compound, second compound 9.49 µM) was under 316 nM; the IC50 (curve of first compound, second compound 30 µM) was under 316 nM. Also, the viability, T/C is 104% (second compound 0.3 µM, first compound 0.316 µM); 111% (second compound 0.3 µM, first compound 1 µM); 103% (second compound 0.3 µM, first compound 3.16 µM); 24.5% (second compound 0.3 µM, first compound 10 µM); 0.49% (second compound 0.3 µM, first compound 31.6 µM); 91.8% (second compound 0.3 µM, first compound 100 µM). Besides, the viability, T/C (second compound 0.949 µM, first compound 0.316 µM) was 89.5%; the viability, T/C (second compound 0.949 µM, first compound 1 µM) is 101%; the viability, T/C (second compound 0.949 µM, first compound 3.16 µM) was 85.2%; the viability, T/C (second compound 0.949 µM, first compound 10 µM) is 15.7%; the viability, T/C (second compound 0.949 µM, first compound 31.6 µM) is 16.6%; the viability, T/C (second compound 0.949 µM, first compound 100 µM) was 82.9%. Moreover, the viability, T/C is 83% (second compound 3 µM, first compound 0.316 µM); 72.8% (second compound 3 µM, first compound 1 µM); 58.8% (second compound 3 µM, first compound 3.16 µM); 6.57% (second compound 3 µM, first compound 10 µM); 3.37% (second compound 3 µM, first compound 31.6 µM); 3.64% (second compound 3 µM, first compound 100 µM). For the same compound, the viability, T/C is 41.6% (second compound 9.49 µM, first compound 0.316 µM); 42.8% (second compound 9.49 µM, first compound 1 µM); 36.5% (second compound 9.49 µM, first compound 3.16 µM); 1.52% (second compound 9.49 µM, first compound 10 µM); 0.38% (second compound 9.49 µM, first compound 31.6 µM); 0.73% (second compound 9.49 µM, first compound 100 µM). In addition, the viability, T/C is, setting by setting: (second compound 30 µM, first compound 0.316 µM) 19.2%; (second compound 30 µM, first compound 1 µM) 19.2%; (second compound 30 µM, first compound 3.16 µM) 4.74%; (second compound 30 µM, first compound 10 µM) 0.42%; (second compound 30 µM, first compound 31.6 µM) 0.39%; (second compound 30 µM, first compound 100 µM) 0.5%.

As for `CC(C)NCC(C(=O)N1CCN(c2ncnc3c2C(C)CC3O)CC1)c1ccc(Cl)cc1` (stereo unspecified), the viability, T/C reads like this: (compound 0.3 µM) 99.2% [middle of 10 runs]; (compound 0.949 µM) 91.1% [middle of 10 runs]; (compound 3 µM) 70.3% [middle of 10 runs]; (compound 9.49 µM) 41.4% [middle of 10 runs]; (compound 30 µM) 19.1% [middle of 10 runs]. For the same compound, the IC50 (compound alone, run of 02/20/2020) was 6.66 µM [middle of 10 runs].

For `COc1c(OCCCN2CCOCC2)ccc2c3n(c(=NC(=O)c4cnc(N)nc4)nc12)CCN3`, the viability, T/C is 101% and 102% (compound 0.00316 µM); 91.1% and 89.1% (compound 0.01 µM); 67.9% and 77.9% (compound 0.0316 µM); 41.9% and 35.2% (compound 0.1 µM); 13.5% and 10.8% (compound 0.316 µM); 2.91% and 1.78% (compound 1 µM). Besides, the IC50 (curve of compound) is 67.3 nM and 67 nM.

For `CCCS(=O)(=O)Nc1ccc(F)c(C(=O)c2c[nH]c3ncc(-c4ccc(Cl)cc4)cc23)c1F`, the viability, T/C reads like this: (compound 0.316 µM) 115% and 97.9%; (compound 1 µM) 107% and 92.3%; (compound 3.16 µM) 106% and 99.3%; (compound 10 µM) 12.5% and 20.2%; (compound 31.6 µM) 103% and 16.7%; (compound 100 µM) 83.9% and 100%.

In the case of `CC(C)CC(NC(=O)C(Cc1ccccc1)NC(=O)c1cnccn1)B(O)O` (stereo unspecified), the viability, T/C (compound 31.6 pM) is 91.3% and 98.6%; the viability, T/C (compound 0.0001 µM) was 90.4% and 95.9%; the viability, T/C (compound 0.000316 µM) is 98.8% and 103%; the viability, T/C (compound 0.001 µM) is 94.7% and 103%; the viability, T/C (compound 0.00316 µM) is 39.8% and 19.6%; the viability, T/C (compound 0.01 µM) is 0.36% and 0.32%. Besides, the IC50 (curve of compound) was 2.55 nM and 2.05 nM.

By IC50 is commonly meant the concentration needed to halve the response being measured. Broadly, the viability, T/C is the ratio of treated to control.
